Data as given in ChEMBL document CHEMBL5236634, “Membrane-Targeting Neolignan-Antimicrobial Peptide Mimic Conjugates to Combat Methicillin-Resistant Staphylococcus aureus (MRSA) Infections” (J Med Chem, 2022).
Active and inactive are the calls of the source. The rule behind the calls is not given here.

Tests used:
Staphylococcus aureus [1] = assay: Antibacterial activity against methicillin-resistant Staphylococcus aureus 15 infected in BALB/c mouse sepsis model assessed as normalization of cell morphology in kidney at 10 mg/kg, ip measured after 48 hrs by H & E staining based analysis; assay type: functional, organism-based
Staphylococcus aureus [2] = assay: Antibacterial activity against methicillin-resistant Staphylococcus aureus 15 infected in BALB/c mouse sepsis model assessed as reduction in bacterial load in kidney at 10 mg/kg, ip measured after 48 hrs; assay type: functional, organism-based
Staphylococcus aureus [3] = assay: Inhibition of biofilm formation in methicillin-resistant Staphylococcus aureus 15 assessed as destruction of formed biofilm at 128 ug/ml incubated for 24 hrs by crystal violet staining based analysis relative to control; assay type: functional
Salmonella enterica [4] = assay: Antibacterial activity against Salmonella enterica H9812 assessed as inhibition of bacterial growth incubated for 16 to 20 hrs by CLSI based microdilution method; assay type: functional; conditions: time 16-20 hrs
Staphylococcus aureus [5] = assay: Inhibition of biofilm formation in Staphylococcus aureus ATCC 29213 assessed as destruction of formed biofilm at 0 to 128 ug/ml incubated for 24 hrs by crystal violet staining based analysis; assay type: functional, organism-based; conditions: dose 0-128 µg/ml
[6] = Toxicity in BALB/c mouse assessed as effect on albumin level at 50 mg/kg, ip administered as single dose and measured after 24 hrs; assay type: organism-based; conditions: in vivo
[7] = Toxicity in BALB/c mouse assessed as survival rate at 10 to 50 mg/kg, ip administered as single dose and measured for 7 consecutive days; assay type: organism-based; conditions: in vivo, dose 10-50 mg/kg, time 7 day
Staphylococcus aureus [8] = assay: Inhibition of biofilm formation in Staphylococcus aureus ATCC 29213 at 64 ug/ml incubated for 24 hrs by crystalline violet staining based analysis; assay type: functional
[9] = Toxicity in BALB/c mouse assessed as pathological changes in kidney at 50 mg/kg, ip administered as single dose and measured after 24 hrs by H & E staining based analysis; assay type: organism-based; conditions: in vivo
Staphylococcus aureus [10] = assay: Inhibition of biofilm formation in methicillin-resistant Staphylococcus aureus 15 incubated for 24 hrs by crystalline violet staining based analysis; assay type: functional, organism-based; conditions: dose 0.125-64 µg/ml
Staphylococcus aureus [11] = assay: Induction of ROS production in methicillin-resistant Staphylococcus aureus 15 assessed as accumulation of intracellular ROS incubated for 30 mins by DCFH-DA staining based fluorescence assay; assay type: functional, organism-based; conditions: dose 2-64 µg/ml
Cell membrane [12] = assay: Induction of cell membrane disruption in methicillin-resistant Staphylococcus aureus 15 assessed as DNA leakage at 1 to 6 times MIC incubated for 1 to 2 hrs by microspectrophotometer; assay type: subcellular; conditions: time 1-2 hrs
[13] = Toxicity in BALB/c mouse assessed as effect on creatinine level at 50 mg/kg, ip administered as single dose and measured after 24 hrs; assay type: organism-based; conditions: in vivo
Staphylococcus aureus [14] = assay: Bactericidal activity against Staphylococcus aureus ATCC 29213 at 4 to 8 times MIC measured for 24 hrs by time kill assay; assay type: functional, organism-based
[15] = Toxicity in BALB/c mouse assessed as pathological changes in spleen at 50 mg/kg, ip administered as single dose and measured after 24 hrs by H & E staining based analysis; assay type: organism-based; conditions: in vivo
Cell membrane [16] = assay: Induction of membrane depolarization in methicillin-resistant Staphylococcus aureus 15 assessed as increase in fluorescence intensity at 32 ug/ml by DiSC3-5 dye based fluorescence method; assay type: subcellular; conditions: dose 32.0 µg/ml
Enterococcus faecalis = assay: Antibacterial activity against Enterococcus faecalis ATCC 29212 assessed as inhibition of bacterial growth incubated for 16 to 20 hrs by CLSI based microdilution method; assay type: functional; conditions: time 16-20 hrs
Cell membrane [17] = assay: Disruption of membrane integrity in methicillin-resistant Staphylococcus aureus 15 assessed as increase in red fluorescence at 16 ug/ml incubated for 1 hr by DAPI/PI staining based fluorescence microscopic analysis; assay type: subcellular; conditions: dose 16.0 µg/ml
Staphylococcus aureus [18] = assay: Antibacterial activity against methicillin-resistant Staphylococcus aureus 15 incubated for 16 to 18 hrs in presence of phosphatidylethanolamine by checkerboard microdilution assay; assay type: functional, organism-based; conditions: time 16-18 hrs
[19] = Hemolytic activity in sheep RBC incubated for 1 hr by absorbance based analysis; assay type: toxicity, cell-based, Ovis aries, Erythrocyte; conditions: sheep red blood cells
Staphylococcus aureus [20] = assay: Inhibition of biofilm formation in methicillin-resistant Staphylococcus aureus 15 at 64 ug/ml incubated for 24 hrs by crystalline violet staining based analysis; assay type: functional
[21] = Toxicity in BALB/c mouse assessed as effect on hemoglobin level at 50 mg/kg, ip administered as single dose and measured after 24 hrs; assay type: organism-based; conditions: in vivo
Staphylococcus aureus [22] = assay: Antibacterial activity against methicillin-resistant Staphylococcus aureus 15 incubated for 16 to 18 hrs in presence of cardiolipin by checkerboard microdilution assay; assay type: functional, organism-based; conditions: time 16-18 hrs
[23] = Toxicity in BALB/c mouse assessed as effect on mean corpuscular volume at 50 mg/kg, ip administered as single dose and measured after 24 hrs; assay type: organism-based; conditions: in vivo
Micrococcus luteus = assay: Antibacterial activity against Micrococcus luteus assessed as inhibition of bacterial growth incubated for 16 to 20 hrs by CLSI based microdilution method; assay type: functional; conditions: time 16-20 hrs
Staphylococcus aureus [24] = assay: Antibacterial activity against methicillin-resistant Staphylococcus aureus 15 infected in BALB/c mouse sepsis model assessed as normalization of cell morphology in liver at 10 mg/kg, ip measured after 48 hrs by H & E staining based analysis; assay type: functional, organism-based
[25] = Selectivity index, ratio of HC50 for hemolytic activity in sheep RBC to MIC for antibacterial activity against Staphylococcus aureus ATCC 29213; assay type: toxicity; conditions: sheep red blood cells
Cell membrane [26] = assay: Induction of cell membrane disruption in methicillin-resistant Staphylococcus aureus 15 assessed as protein leakage at 1 to 6 times MIC incubated for 1 to 2 hrs; assay type: subcellular; conditions: time 1-2 hrs
Staphylococcus aureus [27] = assay: Antibacterial activity against methicillin-resistant Staphylococcus aureus 15 incubated for 16 to 18 hrs in presence of peptidoglycan by checkerboard microdilution assay; assay type: functional, organism-based; conditions: time 16-18 hrs
Staphylococcus aureus [28] = assay: Induction of drug resistance in Staphylococcus aureus ATCC 29213 assessed as increase in MIC at 0.5 times MIC measured for 20 days by CLSI based microdilution method; assay type: functional, organism-based; conditions: time 20.0 day
[29] = Toxicity in BALB/c mouse assessed as effect on WBC count at 50 mg/kg, ip administered as single dose and measured after 24 hrs; assay type: organism-based; conditions: in vivo
Staphylococcus aureus [30] = assay: Antibacterial activity against methicillin-resistant Staphylococcus aureus 15 infected in BALB/c mouse sepsis model assessed as survival rate at 20 mg/kg, ip administered for 7 days; assay type: functional; conditions: Staphylococcus aureus, 15, 168 h, time 7 day
Cell membrane [31] = assay: Disruption of membrane integrity in methicillin-resistant Staphylococcus aureus 15 at 32 ug/ml by SEM analysis; assay type: subcellular; conditions: dose 32.0 µg/ml
Staphylococcus aureus [32] = assay: Antibacterial activity against methicillin-resistant Staphylococcus aureus 15 incubated for 16 to 18 hrs in presence of phosphatidylglycerol by checkerboard microdilution assay; assay type: functional, organism-based; conditions: time 16-18 hrs
Staphylococcus aureus [33] = assay: Antibiofilm activity against Staphylococcus aureus ATCC 29213 assessed as reduction in live bacteria in biofilm incubated for 24 hrs by crystal violet staining based analysis; assay type: functional, organism-based; conditions: dose 0-128 µg/ml
Salmonella enterica [34] = assay: Antibacterial activity against Salmonella enterica 8389 assessed as inhibition of bacterial growth incubated for 16 to 20 hrs by CLSI based microdilution method; assay type: functional; conditions: time 16-20 hrs
Staphylococcus aureus [35] = assay: Antibacterial activity against methicillin-resistant Staphylococcus aureus 15 infected in BALB/c mouse sepsis model assessed as reduction in inflammatory factors in organs at 10 mg/kg, ip measured after 48 hrs by H & E staining based analysis; assay type: functional, organism-based

SMILES	Activity (Staphylococcus aureus [1])	Activity (Staphylococcus aureus [2])	inhibition at 128 µg/mL (Staphylococcus aureus [3])	MIC (Salmonella enterica [4])	inhibition (Staphylococcus aureus [5])	Activity [6]	survival at 168 h [7]	inhibition at 64 µg/mL (Staphylococcus aureus [8])	Activity [9]	inhibition (Staphylococcus aureus [10])	Activity (Staphylococcus aureus [11])	Activity (Cell membrane [12])	Activity [13]	Activity (Staphylococcus aureus [14])	Activity [15]	Activity (Cell membrane [16])	MIC (Enterococcus faecalis)	Activity (Cell membrane [17])	Activity (Staphylococcus aureus [18])	HC50 at 1 h [19]	also measured
C=CCc1cccc(Oc2ccc(C(=O)CC)cc2)c1OCC[N+](C)(C)CC(=O)NCCCCCC.[Br-]	Active	Active	> 80%	64 µg/mL	Active	Non-Toxic	100%	100%	Non-Toxic	Dose-Dependent Effect	Dose-Dependent Effect	Active	Non-Toxic	Dose-Dependent Effect	Non-Toxic	Active	2 µg/mL	Active	Active	1110 µg/mL	inhibition at 64 µg/mL (Staphylococcus aureus [20]): 100%; Activity [21]: Non-Toxic; Activity (Staphylococcus aureus [22]): inactive; Activity [23]: Non-Toxic; MIC (Micrococcus luteus): 4 µg/mL; Activity (Staphylococcus aureus [24]): Active; selectivity ratio [25]: 556; Activity (Cell membrane [26]): Active; Activity (Staphylococcus aureus [27]): Active; Activity (Staphylococcus aureus [28]): inactive; Activity [29]: Non-Toxic; survival at 20 mg/kg (Staphylococcus aureus [30]): 100%; Activity (Cell membrane [31]): Active; Activity (Staphylococcus aureus [32]): inactive; Activity (Staphylococcus aureus [33]): Active; MIC (Salmonella enterica [34]): 64 µg/mL; Activity (Staphylococcus aureus [35]): Active
C=CCc1cccc(Oc2ccc(C(=O)CC)cc2)c1OCCC[N+](C)(C)CC(=O)NCCCCCC.[Br-]	Active	Active	> 80%	32 µg/mL	Active	Non-Toxic	100%	100%	Non-Toxic	Dose-Dependent Effect	Dose-Dependent Effect	Active	Non-Toxic	Dose-Dependent Effect	Non-Toxic	Active	2 µg/mL	Active	Active	916 µg/mL	inhibition at 64 µg/mL (Staphylococcus aureus [20]): 100%; Activity [21]: Non-Toxic; Activity (Staphylococcus aureus [22]): inactive; Activity [23]: Non-Toxic; MIC (Micrococcus luteus): 1 µg/mL; Activity (Staphylococcus aureus [24]): Active; selectivity ratio [25]: 458; Activity (Cell membrane [26]): Active; Activity (Staphylococcus aureus [27]): Active; Activity (Staphylococcus aureus [28]): inactive; Activity [29]: Non-Toxic; survival at 20 mg/kg (Staphylococcus aureus [30]): 100%; Activity (Cell membrane [31]): Active; Activity (Staphylococcus aureus [32]): inactive; Activity (Staphylococcus aureus [33]): Active; MIC (Salmonella enterica [34]): 32 µg/mL; Activity (Staphylococcus aureus [35]): Active
